Measurements taken from ChEMBL document CHEMBL4831528, “Discovery of Novel Pterostilbene-Based Derivatives as Potent and Orally Active NLRP3 Inflammasome Inhibitors with Inflammatory Activity for Colitis” (J Med Chem, 2021).
Activity calls are given as the source filed them. The rule behind the calls is not given here.

Experiments:
Mus musculus [1] = assay: Downregulation of phosphorylated p65 expression in colon of C57BL/6 mouse model of DSS-induced ulcerative colitis at 10 to 20 mg/kg, ig administered for 7 days by Western blot analysis; format: functional, organism-based; conditions: dose 10-20 mg/kg, time 7.0 day
BMDM [2] = assay: Effect on NLRP3 expression in LPS-stimulated mouse bone marrow-derived macrophages at 0.5 to 2 uM preincubated for 30 mins followed by nigericin addition and measured after 30 mins by Western blot analysis; format: functional, tissue-based; conditions: dose 0.5-2 µM, time 60.0 min
[3] = molecular target: NACHT, LRR and PYD domains-containing protein 3 (Mus musculus) (UniProt Q8R4B8); assay: Inhibition of NLRP3 inflammasome activation in LPS-stimulated mouse bone marrow-derived macrophages assessed as attenuation of ASC polymer at 1 to 4 uM preincubated for 30 mins followed by nigericin addition and measured after 0.5 hrs by Western blot analysis; format: tissue-based; conditions: Macrophage, dose 1-4 µM, time 60.0 min
Mus musculus [4] = assay: Downregulation of phosphorylated STAT3 expression in colon of C57BL/6 mouse model of DSS-induced ulcerative colitis at 10 to 20 mg/kg, ig administered for 7 days by Western blot analysis; format: functional, organism-based; conditions: dose 10-20 mg/kg, time 7.0 day
[5] = Inhibition of ROS production in LPS-stimulated mouse bone marrow-derived macrophages at 1 to 4 uM preincubated for 30 mins followed by nigericin addition and measured after 0.5 hrs by Western blot analysis; conditions: Macrophage, dose 1-4 µM, time 60.0 min
Mus musculus [6] = assay: Protection against DSS-induced acute ulcerative colitis in C57BL/6 mouse assessed as reduction in adhesion of colon at 10 to 20 mg/kg, ig administered for 7 days; format: functional, organism-based; conditions: dose 10-20 mg/kg, time 7.0 day
[7] = molecular target: NACHT, LRR and PYD domains-containing protein 3 (Mus musculus) (UniProt Q8R4B8); assay: Inhibition of NLRP3 inflammasome activation in LPS-stimulated mouse bone marrow-derived macrophages assessed as reduction in pro IL-1beta secretion in cell lysate at 2 uM preincubated for 30 mins followed by nigericin addition and measured after 0.5 hrs by Western blot analysis; format: subcellular; conditions: Macrophage, time 60.0 min
BMDM [8] = assay: Effect on pro-caspase1(p45) expression in LPS-stimulated mouse bone marrow-derived macrophages at 0.5 to 2 uM preincubated for 30 mins followed by nigericin addition and measured after 30 mins by Western blot analysis; format: functional, tissue-based; conditions: dose 0.5-2 µM, time 60.0 min
[9] = molecular target: NACHT, LRR and PYD domains-containing protein 3 (Mus musculus) (UniProt Q8R4B8); assay: Inhibition of NLRP3 inflammasome activation in LPS-stimulated mouse bone marrow-derived macrophages assessed as reduction in caspase1 p20 secretion preincubated for 30 mins followed by nigericin addition and measured after 30 mins by Western blot analysis; format: tissue-based; conditions: Macrophage, time 60.0 min
Macrophage = assay: Inhibition of NFkappaB activation in LPS-stimulated mouse bone marrow-derived macrophages assessed as reduction in TNFalpha secretion at 0.5 to 2 uM preincubated for 30 mins followed by nigericin addition and measured after 30 mins by ELISA; format: tissue-based; conditions: dose 0.5-2 µM, time 60.0 min
[10] = molecular target: NACHT, LRR and PYD domains-containing protein 3 (Homo sapiens, UniProt Q96P20); assay: Binding affinity to His-GFP fused tagged NLRP3 (unknown origin) expressed in HEK293T incubated for 30 mins by microscale thermophoresis assay; format: cell-based
[11] = Half life in mouse at 20 mg/kg, po measured up to 24 hrs by LC-MS/MS analysis; format: ADME, organism-based; conditions: in vivo
Mus musculus [12] = assay: In vivo inhibition of NLRP3 inflammasome activation in C57BL/6 mouse model of DSS-induced ulcerative colitis assessed as reduction in IL-1beta expression at 10 to 20 mg/kg, ig administered for 7 days by ELISA; format: functional, organism-based; conditions: dose 10-20 mg/kg, time 7.0 day
[13] = molecular target: NACHT, LRR and PYD domains-containing protein 3 (Mus musculus) (UniProt Q8R4B8); assay: Inhibition of NLRP3 inflammasome activation in LPS-stimulated mouse bone marrow-derived macrophages assessed as reduction in activated caspase1 p20 in supernatant at 2 uM preincubated for 30 mins followed by nigericin addition and measured after 0.5 hrs by Western blot analysis; format: tissue-based; conditions: Macrophage, time 60.0 min
[14] = molecular target: NACHT, LRR and PYD domains-containing protein 3 (Mus musculus) (UniProt Q8R4B8); assay: Inhibition of NLRP3 inflammasome activation in LPS-stimulated mouse bone marrow-derived macrophages assessed as reduction in pro caspase1 in cell lysate at 2 uM preincubated for 30 mins followed by MSU addition and measured after 0.5 hrs by Western blot analysis; format: subcellular; conditions: Macrophage, time 60.0 min
[15] = molecular target: NACHT, LRR and PYD domains-containing protein 3 (Mus musculus) (UniProt Q8R4B8); assay: Inhibition of NLRP3 inflammasome activation in LPS-stimulated mouse bone marrow-derived macrophages assessed as reduction in cell pyrolysis at 5 to 25 uM preincubated for 30 mins followed by nigericin addition and measured after 30 mins by Western blot analysis; format: tissue-based; conditions: Macrophage, dose 5-25 µM, time 60.0 min
[16] = molecular target: NACHT, LRR and PYD domains-containing protein 3 (Mus musculus, UniProt Q8R4B8); assay: Inhibition of NLRP3 inflammasome activation in LPS-stimulated mouse bone marrow-derived macrophages assessed as reduction in IL-1beta secretion preincubated for 30 mins followed by nigericin addition and measured after 30 mins by ELISA; format: tissue-based, Macrophage
Mus musculus [17] = assay: Protection against DSS-induced acute ulcerative colitis in C57BL/6 mouse assessed as reduction in decrease in goblet cells at 10 to 20 mg/kg, ig administered for 7 days by Hematoxylin and eosin staining based optical microscopy; format: functional, organism-based; conditions: dose 10-20 mg/kg, time 7.0 day
[18] = Toxicity in C57BL/6 mouse assessed as weight loss at 20 to 40 mg/kg, ig administered for 28 days; format: organism-based; conditions: in vivo, po, 672 h, dose 20-40 mg/kg, time 28 day
BMDM [19] = assay: Effect on ASC expression in LPS-stimulated mouse bone marrow-derived macrophages at 0.5 to 2 uM preincubated for 30 mins followed by nigericin addition and measured after 30 mins by Western blot analysis; format: functional, tissue-based; conditions: dose 0.5-2 µM, time 60.0 min
BMDM [20] = assay: Effect on pro-IL1beta expression in LPS-stimulated mouse bone marrow-derived macrophages at 0.5 to 2 uM preincubated for 30 mins followed by nigericin addition and measured after 30 mins by Western blot analysis; format: functional, tissue-based; conditions: dose 0.5-2 µM, time 60.0 min
[21] = Toxicity in C57BL/6 mouse assessed as effect on liver at 20 to 40 mg/kg, ig administered for 28 days; format: organism-based; conditions: in vivo, po, 672 h, dose 20-40 mg/kg, time 28 day
[22] = Toxicity in C57BL/6 mouse assessed as effect on spleen at 20 to 40 mg/kg, ig administered for 28 days; format: organism-based; conditions: in vivo, po, 672 h, dose 20-40 mg/kg, time 28 day
[23] = molecular target: NACHT, LRR and PYD domains-containing protein 3 (Mus musculus) (UniProt Q8R4B8); assay: Inhibition of NLRP3 inflammasome activation in LPS-stimulated mouse bone marrow-derived macrophages assessed as reduction in caspase1 p20 in supernatant at 2 uM preincubated for 30 mins followed by MSU addition and measured after 0.5 hrs by Western blot analysis; format: tissue-based; conditions: Macrophage, time 60.0 min
[24] = molecular target: NACHT, LRR and PYD domains-containing protein 3 (Mus musculus) (UniProt Q8R4B8); assay: Inhibition of NLRP3 inflammasome activation in LPS-stimulated mouse bone marrow-derived macrophages assessed as reduction in IL-1beta secretion at 1 to 4 uM preincubated for 30 mins followed by nigericin addition and measured after 0.5 hrs by Western blot analysis; format: tissue-based; conditions: Macrophage, dose 1-4 µM
[25] = Toxicity in C57BL/6 mouse assessed as induction of convulsion at 20 to 40 mg/kg, ig administered for 28 days; format: organism-based; conditions: in vivo, po, 672 h, dose 20-40 mg/kg, time 28 day
[26] = Cmax in mouse at 20 mg/kg, po measured up to 24 hrs by LC-MS/MS analysis; format: ADME, organism-based; design: route oral, dose 20 mg/kg, time <=24; conditions: in vivo

Chain of NACHT, LRR and PYD domains-containing protein 3 (Mus musculus) (Q8R4B8 whole entry, the tested form may be a part): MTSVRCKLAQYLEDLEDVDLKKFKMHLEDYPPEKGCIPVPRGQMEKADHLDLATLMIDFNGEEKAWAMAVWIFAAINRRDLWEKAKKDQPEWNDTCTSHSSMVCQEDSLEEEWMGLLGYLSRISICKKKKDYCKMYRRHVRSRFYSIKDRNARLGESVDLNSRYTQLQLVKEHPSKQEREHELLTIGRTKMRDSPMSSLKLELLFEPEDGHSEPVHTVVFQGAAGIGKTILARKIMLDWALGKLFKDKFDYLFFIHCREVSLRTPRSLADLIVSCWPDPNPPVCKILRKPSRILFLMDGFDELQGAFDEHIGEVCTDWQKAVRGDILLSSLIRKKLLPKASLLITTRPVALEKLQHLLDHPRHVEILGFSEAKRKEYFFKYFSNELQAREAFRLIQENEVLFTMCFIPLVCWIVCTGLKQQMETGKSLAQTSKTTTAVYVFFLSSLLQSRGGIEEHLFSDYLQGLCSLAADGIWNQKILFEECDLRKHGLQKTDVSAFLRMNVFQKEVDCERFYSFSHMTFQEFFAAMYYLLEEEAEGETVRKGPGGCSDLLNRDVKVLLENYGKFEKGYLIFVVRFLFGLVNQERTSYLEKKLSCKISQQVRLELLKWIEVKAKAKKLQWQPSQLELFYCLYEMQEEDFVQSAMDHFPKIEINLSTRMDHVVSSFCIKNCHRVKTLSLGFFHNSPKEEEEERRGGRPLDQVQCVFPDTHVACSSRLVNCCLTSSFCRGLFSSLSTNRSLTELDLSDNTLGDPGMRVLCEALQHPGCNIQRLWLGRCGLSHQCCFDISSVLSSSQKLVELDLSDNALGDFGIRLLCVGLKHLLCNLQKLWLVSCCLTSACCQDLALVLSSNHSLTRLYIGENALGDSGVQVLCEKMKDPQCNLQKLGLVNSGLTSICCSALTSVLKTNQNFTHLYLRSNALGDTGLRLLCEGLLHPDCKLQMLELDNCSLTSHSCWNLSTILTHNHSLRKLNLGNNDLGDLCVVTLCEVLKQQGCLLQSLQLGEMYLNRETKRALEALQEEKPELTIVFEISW
Chain of NACHT, LRR and PYD domains-containing protein 3 (Homo sapiens, UniProt Q96P20) (Q96P20 whole entry, the tested form may be a part): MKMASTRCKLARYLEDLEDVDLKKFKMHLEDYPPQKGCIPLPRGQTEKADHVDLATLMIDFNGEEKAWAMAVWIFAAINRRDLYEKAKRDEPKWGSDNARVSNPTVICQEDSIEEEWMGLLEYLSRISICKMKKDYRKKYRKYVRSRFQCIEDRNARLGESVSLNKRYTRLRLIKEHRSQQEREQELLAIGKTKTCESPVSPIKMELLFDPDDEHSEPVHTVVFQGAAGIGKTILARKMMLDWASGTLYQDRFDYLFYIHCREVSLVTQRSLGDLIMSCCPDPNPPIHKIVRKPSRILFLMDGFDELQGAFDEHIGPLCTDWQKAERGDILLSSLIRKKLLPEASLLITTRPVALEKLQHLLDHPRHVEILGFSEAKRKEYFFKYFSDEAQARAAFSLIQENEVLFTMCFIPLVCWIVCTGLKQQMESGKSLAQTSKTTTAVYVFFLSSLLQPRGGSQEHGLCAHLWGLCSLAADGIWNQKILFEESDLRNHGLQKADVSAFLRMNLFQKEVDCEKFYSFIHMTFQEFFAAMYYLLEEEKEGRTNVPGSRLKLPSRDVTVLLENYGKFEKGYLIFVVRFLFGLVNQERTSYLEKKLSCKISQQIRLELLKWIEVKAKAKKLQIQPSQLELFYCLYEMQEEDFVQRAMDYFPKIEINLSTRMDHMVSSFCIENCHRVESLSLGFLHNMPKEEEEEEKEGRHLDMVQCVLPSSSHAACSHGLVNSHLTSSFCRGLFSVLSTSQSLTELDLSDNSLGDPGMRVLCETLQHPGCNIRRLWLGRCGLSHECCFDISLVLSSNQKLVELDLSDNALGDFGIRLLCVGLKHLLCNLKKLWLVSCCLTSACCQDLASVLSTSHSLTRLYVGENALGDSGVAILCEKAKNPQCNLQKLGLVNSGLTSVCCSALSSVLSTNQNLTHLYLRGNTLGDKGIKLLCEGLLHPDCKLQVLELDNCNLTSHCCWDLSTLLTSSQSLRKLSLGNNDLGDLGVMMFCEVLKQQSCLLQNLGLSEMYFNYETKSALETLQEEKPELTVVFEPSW
Chain of NACHT, LRR and PYD domains-containing protein 3 (Mus musculus, UniProt Q8R4B8) (Q8R4B8 whole entry, the tested form may be a part): as the sequence (Q8R4B8 whole entry, the tested form may be a part) above

**Q.** Which results are given for `COc1cc(/C=C/c2ccc(NC(=O)C3CC3)cc2)c(/C=C/[N+](=O)[O-])c(OC)c1`?
**A.** Activity (Mus musculus [1]): Active; Activity (BMDM [2]): inactive; inhibition [3]: Active; Activity (Mus musculus [4]): Active; inhibition [5]: inactive; Activity (Mus musculus [6]): Active; inhibition [7]: Active; Activity (BMDM [8]): inactive; inhibition [9]: Dose-Dependent Effect; inhibition (Macrophage): inactive; Kd [10]: 263 nM; half-life [11]: 4.93 h; inhibition (Mus musculus [12]): Active; inhibition [13]: Active; inhibition [14]: Active; inhibition [15]: Active; IC50 [16]: 560 nM; Activity (Mus musculus [17]): Active; Activity [18]: Non-Toxic; Activity (BMDM [19]): inactive; Activity (BMDM [20]): inactive; Activity [21]: Non-Toxic; Activity [22]: Non-Toxic; inhibition [23]: Active; inhibition [24]: Active; Activity [25]: Non-Toxic; Cmax [26]: 95.1 ng/mL
